# Results reported in ChEMBL document CHEMBL1154019, “Sulfonamides with the N-alkyl-N'-dialkylguanidine moiety as 5-HT7 receptor ligands” (Bioorg Med Chem Lett, 2009).
# What was measured:
# [1] = target: 5-hydroxytryptamine receptor 7 (Homo sapiens, UniProt P34969); assay: Binding affinity to human cloned 5HT7 receptor expressed in HEK293 cells; assay type: cell-based
# [2] = target: T1, 5-hydroxytryptamine receptor 1A (Rattus norvegicus, UniProt P19327); assay: Binding affinity to 5HT1A receptor in rat hippocampus; assay type: tissue-based
# T1 sequence (P19327 whole entry): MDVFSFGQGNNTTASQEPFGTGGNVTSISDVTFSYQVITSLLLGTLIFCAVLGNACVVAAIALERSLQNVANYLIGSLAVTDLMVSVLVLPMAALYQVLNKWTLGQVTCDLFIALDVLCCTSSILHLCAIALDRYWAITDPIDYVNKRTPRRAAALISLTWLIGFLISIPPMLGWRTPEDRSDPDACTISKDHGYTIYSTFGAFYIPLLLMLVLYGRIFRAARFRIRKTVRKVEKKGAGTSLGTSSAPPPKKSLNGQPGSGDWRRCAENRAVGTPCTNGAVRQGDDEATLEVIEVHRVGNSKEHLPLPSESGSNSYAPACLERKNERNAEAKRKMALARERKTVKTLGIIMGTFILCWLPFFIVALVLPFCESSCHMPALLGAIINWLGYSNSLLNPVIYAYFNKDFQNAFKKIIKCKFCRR
# [3] = target: 5-hydroxytryptamine receptor 2A (Rattus norvegicus, UniProt P14842); assay: Binding affinity to 5HT2A receptor in rat cortex; assay type: tissue-based
# 5-hydroxytryptamine receptor 2A, sequence (P14842 whole entry): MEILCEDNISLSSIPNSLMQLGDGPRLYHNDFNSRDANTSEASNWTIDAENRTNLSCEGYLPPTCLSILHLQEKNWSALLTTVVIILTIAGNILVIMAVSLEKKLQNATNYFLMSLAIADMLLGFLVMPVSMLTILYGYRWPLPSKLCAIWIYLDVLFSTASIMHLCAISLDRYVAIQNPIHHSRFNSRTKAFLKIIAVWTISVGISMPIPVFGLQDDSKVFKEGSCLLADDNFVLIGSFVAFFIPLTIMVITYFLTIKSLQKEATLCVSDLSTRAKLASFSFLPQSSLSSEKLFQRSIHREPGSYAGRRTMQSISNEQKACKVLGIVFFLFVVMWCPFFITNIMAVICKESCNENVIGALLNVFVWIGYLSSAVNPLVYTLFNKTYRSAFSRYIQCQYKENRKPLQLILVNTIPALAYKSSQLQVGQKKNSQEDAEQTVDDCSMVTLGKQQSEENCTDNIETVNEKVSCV
# [4] = Selectivity of Ki for human 5HT7 receptor to Ki for rat 5HT1A
# 5-hydroxytryptamine receptor 7, sequence (P34969 whole entry): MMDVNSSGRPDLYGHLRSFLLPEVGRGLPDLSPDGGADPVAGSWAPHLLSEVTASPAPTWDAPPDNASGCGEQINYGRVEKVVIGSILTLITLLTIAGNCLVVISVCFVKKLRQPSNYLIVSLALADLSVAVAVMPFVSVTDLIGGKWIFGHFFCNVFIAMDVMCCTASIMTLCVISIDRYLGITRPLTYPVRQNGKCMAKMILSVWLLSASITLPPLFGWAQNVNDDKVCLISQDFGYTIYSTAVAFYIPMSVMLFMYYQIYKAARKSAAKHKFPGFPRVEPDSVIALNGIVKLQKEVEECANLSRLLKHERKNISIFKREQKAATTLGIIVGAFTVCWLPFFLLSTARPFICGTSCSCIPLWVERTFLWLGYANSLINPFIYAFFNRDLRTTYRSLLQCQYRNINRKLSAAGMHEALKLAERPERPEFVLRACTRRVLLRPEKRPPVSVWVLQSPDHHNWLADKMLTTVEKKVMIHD
SMILES,Ki [1] [nM],Ki [2] [µM],Ki [3] [nM],Ratio Ki [4]
Cc1cccc(S(=O)(=O)NCCN=C(N)N2CCC(C)CC2)c1,177,1.1,148,
Cc1cccc(S(=O)(=O)NCCCCN=C(N)N2CCC(c3ccccc3)CC2)c1,150,12,770,
COc1ccccc1N1CCN(C(=N)NCCNS(=O)(=O)c2cccc(C)c2)CC1,,,,31
COc1ccccc1N1CCN(C(=O)NC(=N)NCc2cccc3ccccc23)CC1,,0.52,150,
Cc1cccc(S(=O)(=O)NCCN=C(N)N2CCC(c3ccccc3)CC2)c1,161,4.55,160,
COc1ccccc1N1CCN(C(=N)NCCCCNS(=O)(=O)c2ccc(C)cc2)CC1,140,10.2,340,
O=S(=O)(c1ccccc1)C1(CCCN2CCc3ccccc3C2)CCC1,,0.035,65,

# Other lines, results leading:
Ki [1] [nM],Ki [2] [µM],Ki [3] [nM],Ratio Ki [4],SMILES
198,2.08,195,,NC(=NCCCCNS(=O)(=O)c1cccc2ccccc12)N1CCc2ccccc2C1
20,0.0046,85,,COc1ccccc1N1CCN(CCCNS(=O)(=O)c2ccc3ccccc3c2)CC1
,> 10,> 10000,,"CC1CCN(CCC2CCCN2S(=O)(=O)c2cccc(O)c2)CC1 (single isomer, unassigned)"
276,17.6,1250,,Cc1cccc(S(=O)(=O)NCCCN=C(N)N2CCC(c3ccccc3)CC2)c1
339,10.4,1150,,COc1ccccc1N1CCN(C(N)=NCCNS(=O)(=O)c2cccc(C)c2)CC1
195,9.86,940,,COc1ccccc1N1CCN(C(N)=NCCCNS(=O)(=O)c2cccc3ccccc23)CC1
49,> 4,400,,CCOc1ccccc1CNC(=N)NC(=O)NC
